The text below walks through data of patent US12344623B2, “Thiazolopyridine derivatives as adenosine receptor antagonists” (Merck Patent GmbH, priority 2019, dated 2025).

The structures appear in SMILES notation. Where only a bound is given, the exact number is not on record here.

Holding throughout (type): cell-based
The target of experiment [1] is T1, human A2A receptor (Homo sapiens, UniProt P29274). The experiment in a line: Human T cells, endogenous A2A receptor, cAMP, agonist NECA. Particulars: read-out: hTcell data, cAMP, IC50. In a few lines:
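Pan T cells isolated from fresh human blood PBMC, endogenously expressing Gs-coupled A2A, treated with compounds. Cellular cAMP measured by HTRF after 1 h; data normalized to inhibitor control and DMSO neutral control, then curve-fitted.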

The target in experiment [2] is T1, human A2A receptor. The experiment in a line: Functional A2A receptor activity, recombinant HEK293 cells, cAMP (HTRF), agonist NECA. The arrangement: expressed in transfected cells; host or cells: HEK293. Particulars: read-out: Functional A2A receptor activity, HEK293, cAMP, IC50. In a few lines: (§1)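 Cellular cAMP measured by HTRF after 30 min incubation of cells with forskolin, test compounds and agonist. Data normalized to inhibitor control and DMSO neutral control, then curve-fitted.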

The target of a further experiment is T2, human A1 receptor (Homo sapiens, UniProt P30542).
T2 construct: expressed in transfected cells; host or cells: CHO
T2 sequence (P30542 1-326): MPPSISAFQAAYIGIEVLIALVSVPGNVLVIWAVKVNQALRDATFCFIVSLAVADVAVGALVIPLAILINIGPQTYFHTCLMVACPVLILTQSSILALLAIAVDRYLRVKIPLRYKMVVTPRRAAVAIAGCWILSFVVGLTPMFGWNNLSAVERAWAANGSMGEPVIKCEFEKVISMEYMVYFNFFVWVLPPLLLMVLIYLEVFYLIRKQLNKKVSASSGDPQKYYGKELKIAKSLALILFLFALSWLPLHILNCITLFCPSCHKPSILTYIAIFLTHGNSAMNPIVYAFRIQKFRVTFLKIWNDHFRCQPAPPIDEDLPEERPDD
As to the kind of experiment: Functional A1 receptor activity, recombinant CHO cells, cAMP (HTRF), forskolin, agonist CPA. As to conditions: recombinant CHO cells, forskolin, agonist CPA; read-out: Functional A1 receptor activity, CHO, cAMP, IC50. In a few lines:
(§2)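 Recombinant CHO cells expressing A1 or A3 receptor (Gi-coupled) were stimulated with forskolin together with test compound and agonist (CPA for A1, IB-MECA for A3), incubated 30 min, then cellular cAMP was read by HTRF. Data were normalized to inhibitor control and DMSO neutral control, then curve-fitted.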

For another experiment, the target named is T3, human A2B receptor (Homo sapiens, UniProt P29275).
T3 construct: expressed in transfected cells; host or cells: HEK293
T3 sequence (P29275 1-332): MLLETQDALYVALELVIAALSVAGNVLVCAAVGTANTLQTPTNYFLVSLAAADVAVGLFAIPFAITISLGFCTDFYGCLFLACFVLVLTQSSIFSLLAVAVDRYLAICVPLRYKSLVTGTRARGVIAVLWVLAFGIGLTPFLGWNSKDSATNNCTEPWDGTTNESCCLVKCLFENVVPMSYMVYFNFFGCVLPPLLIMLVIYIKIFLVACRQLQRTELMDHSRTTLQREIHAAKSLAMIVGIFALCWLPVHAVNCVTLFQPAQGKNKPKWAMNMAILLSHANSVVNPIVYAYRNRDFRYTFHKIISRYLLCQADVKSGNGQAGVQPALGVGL
As to the kind of experiment: Functional A2B receptor activity, recombinant HEK293 cells, cAMP (HTRF), agonist NECA. Particulars: read-out: Functional A2B receptor activity, HEK293, cAMP, IC50. In a few lines: as §1

Experiment [3] concerns mouse Pan T cells. As to the kind of experiment: mTcell assay, cAMP, agonist NECA. As to conditions: Mus musculus, T-cell. The source says: (§3) Adenosine (Ado) in tumor microenvironment can inhibit T cell activity by signaling through A2A receptors and suppress cytokine secretion by T cells. […] Potential A2A antagonists or A2A/A2B dual antagonists can rescue T cells from this inhibition. Herein, we describe the in vitro system we established using Pan T cells from mouse spleens to screen potential A2A antagonists or A2A/A2B dual antagonists for their activity. The method described involves the use of CD3/CD28 pre-coated beads to stimulate Pan T cells purified from mouse splenocytes, combined with the addition of A2A agonist along with potential A2A or A2A/A2B dual antagonists to evaluate potentiation of T cell cytokine production.
Pan T-cells are isolated from black 6 mice by manual dissociation and purified using a Miltenyi Pan T-cell isolation kit. The isolated T-cells are activated in 96 well plates for 48 hours using anti-CD3/CD28 beads in T-cell proliferation media.
After 48 hours, the T-cells are pooled, counted and suspended in serum free media containing 0.1% BSA. The cells are plated at 50,000 cells per well in 10 ul of media and incubated for 2 hours at 37° C. Test compounds are dispensed into the wells at a 10-point dose response, starting at a concentration of 10 uM. […] The plates are incubated for 30 minutes at 37° C. and assayed for cAMP levels using the Cisbio cAMP Dynamic2 reagent kit by adding 10 ul of the kit reagents to each well. The plates are incubated for 1 hour at room temperature and the HTRF signal is read on an Envision plate reader. The raw data is analyzed in Genedata Screener and the resulting data is loaded into the database.

Another experiment deals with T4, human A3 receptor (Homo sapiens, UniProt P0DMS8).
T4 construct: expressed in transfected cells; host or cells: CHO
T4 sequence (P0DMS8 1-318): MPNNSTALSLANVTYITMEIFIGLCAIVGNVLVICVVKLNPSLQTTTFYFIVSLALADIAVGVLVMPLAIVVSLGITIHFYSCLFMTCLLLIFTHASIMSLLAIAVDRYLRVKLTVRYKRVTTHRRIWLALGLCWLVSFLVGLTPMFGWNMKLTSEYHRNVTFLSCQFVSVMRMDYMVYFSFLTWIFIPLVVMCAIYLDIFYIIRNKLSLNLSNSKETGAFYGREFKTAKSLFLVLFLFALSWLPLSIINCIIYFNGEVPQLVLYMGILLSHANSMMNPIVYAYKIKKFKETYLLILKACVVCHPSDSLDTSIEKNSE
As to the kind of experiment: Functional A3 receptor activity, recombinant CHO cells, cAMP (HTRF), forskolin, agonist IB-MECA. Particulars: recombinant CHO cells, forskolin, agonist IB-MECA; read-out: Functional A3 receptor activity, CHO, cAMP, IC50. In a few lines: as §2

Experiment [4] relates to mouse Pan T cells. The experiment in a line: mTcell assay, IL-2, rescue of cytokine secretion, agonist NECA. Particulars: Mus musculus, T-cell, 24 h.
Description: as §3
Briefly, mouse Pan T cells are purified from spleens of BALB/c mice using Pan T cell isolation kit Mouse II (MACS Miltenyi biotech Cat # Order no. 130-095-130) according to manufacturer's protocol. The purified T cells are seeded in Nunc™ 96-Well Polystyrene Round Bottom Microwell Plates in RPMI medium with 10% heat inactivated fetal bovine serum. The cells are rested at 37° C. for 1 h before activating with CD3/CD28 pre-coated beads (Dynabeads™ Mouse T-Activator CD3/CD28; Cat #11456D). After 30 min the cells are treated with varying doses of test antagonist(s). […] After 24 h incubation IL-2 levels in the supernatants are measured by ELISAs according to manufacturer's protocol (R&D systems Cat #DY402 (IL-2)). Once the concentrations are calculated, the difference of cytokine concentration of DMSO control and agonist alone control is calculated and the percentage of rescue by each concentration of antagonist is calculated by using Microsoft Excel. These percentages of cytokine rescue in a dose dependent manner of antagonist is plotted in GraphPad Prism software and IC50 is calculated.

T1 sequence (P29274 whole entry): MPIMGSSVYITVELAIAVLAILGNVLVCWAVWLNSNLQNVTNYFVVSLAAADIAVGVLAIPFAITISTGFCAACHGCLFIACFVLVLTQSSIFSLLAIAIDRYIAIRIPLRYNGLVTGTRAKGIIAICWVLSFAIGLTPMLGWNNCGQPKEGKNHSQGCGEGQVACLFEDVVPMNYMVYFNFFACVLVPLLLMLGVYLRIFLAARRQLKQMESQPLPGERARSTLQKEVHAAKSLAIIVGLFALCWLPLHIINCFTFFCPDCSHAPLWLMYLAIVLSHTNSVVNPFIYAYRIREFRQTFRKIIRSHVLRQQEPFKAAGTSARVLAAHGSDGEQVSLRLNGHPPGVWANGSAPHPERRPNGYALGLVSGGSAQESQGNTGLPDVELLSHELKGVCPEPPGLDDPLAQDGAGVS

With `COc1ncc(C2=CCOCC2)c2sc(NC(=O)N3CCC(N4C(=O)CCC4=O)CC3)nc12` [Compound 100, 4-(2,5-Dioxo-pyrrolidin-1-yl)-piperidine-1-carboxylic acid [7-(3,6-dihydro-2H-pyran-4-yl)-4-methoxy-thiazolo[4,5-c]pyridin-2-yl]-amide], the IC50 at human A2A receptor [1] was below 10 nM; at human A2A receptor [2], below 10 nM; on human A1 receptor, below 1000 nM; at human A2B receptor, below 10 nM; in the experiment with mouse Pan T cells [3], below 100 nM; at human A3 receptor it was above 1000 nM.
Take `COc1ncc(-c2cccs2)c2sc(NC(=O)N3CCC4(CCOCC4)C3)nc12` [Compound 47, 8-Oxa-2-aza-spiro[4.5]decane-2-carboxylic acid (4-methoxy-7-thiophen-2-yl-thiazolo[4,5-c]pyridin-2-yl)-amide]: the IC50 on human A2A receptor [1] is below 10 nM; on human A2A receptor [2], below 10 nM; with mouse Pan T cells [4], below 100 nM; at human A1 receptor, above 1000 nM; at human A2B receptor, below 10 nM; in the experiment on mouse Pan T cells [3], below 100 nM. Further, the IC50 at human A3 receptor was above 1000 nM.
In the case of `COc1cccc(-c2cnc(OC)c3nc(NC(=O)N4CCC5(CCOCC5)C4)sc23)c1` [Compound 54, 8-Oxa-2-aza-spiro[4.5]decane-2-carboxylic acid [4-methoxy-7-(3-methoxy-phenyl)-thiazolo[4,5-c]pyridin-2-yl]-amide], the IC50 at human A2A receptor [1] was below 10 nM; at human A2A receptor [2], below 10 nM; in the experiment with mouse Pan T cells [4] it was below 100 nM; at human A1 receptor it was above 1000 nM; at human A2B receptor, below 10 nM; in the experiment with mouse Pan T cells [3], below 10 nM. Moreover, on human A3 receptor, the IC50 was above 1000 nM.
With `COc1nc(F)c(C2CCOCC2)c2sc(NC(=O)N3CCC4(CCCOC4)C3)nc12` (centres unmarked) [Compound 31, 7-Oxa-2-aza-spiro[4.5]decane-2-carboxylic acid [6-fluoro-4-methoxy-7-(tetrahydro-pyran-4-yl)-thiazolo[4,5-c]pyridin-2-yl]-amide], the IC50 is below 10 nM at human A2A receptor [1]; below 10 nM at human A2A receptor [2]; above 1000 nM on human A1 receptor; below 100 nM on human A2B receptor; below 10 nM in the experiment on mouse Pan T cells [3]; above 1000 nM on human A3 receptor.
Consider `CNc1cccc(-c2cnc(OC)c3nc(NC(=O)N4CCC5(CCOCC5)C4)sc23)c1` [Compound 112, 8-Oxa-2-aza-spiro[4.5]decane-2-carboxylic acid [4-methoxy-7-(3-methylamino-phenyl)-thiazolo[4,5-c]pyridin-2-yl]-amide], for which the IC50 at human A2A receptor [1] is below 10 nM; at human A2A receptor [2], below 10 nM; on human A1 receptor, above 1000 nM; on human A2B receptor, below 100 nM; in the experiment on mouse Pan T cells [3] it was below 10 nM; on human A3 receptor it was above 1000 nM.
As for `COc1ncc(-c2ccccc2)c2sc(NC(=O)N3CC[C@H](CN)C3)nc12` [Compound 1, (R)-3-Aminomethyl-pyrrolidine-1-carboxylic acid (4-methoxy-7-phenyl-thiazolo[4,5-c]pyridin-2-yl)-amide], the IC50 at human A2A receptor [1] was below 10 nM; on human A2A receptor [2], below 10 nM; on human A1 receptor it was above 1000 nM; on human A2B receptor it was below 100 nM; in the experiment on mouse Pan T cells [3], below 100 nM; on human A3 receptor, above 1000 nM.
As for `COc1nc(F)c(C2CCOCC2)c2sc(NC(=O)c3ccc(C(=O)N(C)CCO)cc3)nc12` [Compound 50, N-[6-Fluoro-4-methoxy-7-(tetrahydro-pyran-4-yl)-thiazolo[4,5-c]pyridin-2-yl]-N′-(2-hydroxy-ethyl)-N′-methyl-terephthalamide], the IC50 on human A2A receptor [1] was below 10 nM; on human A2A receptor [2], below 10 nM; on human A1 receptor it was above 1000 nM; at human A2B receptor, below 10 nM; in the experiment with mouse Pan T cells [3], below 100 nM; at human A3 receptor, above 1000 nM.
`COc1ncc(-c2ccccc2)c2sc(NC(=O)N3CCC(N4C(=O)CCC4=O)CC3)nc12` [Compound 99, 4-(2,5-Dioxo-pyrrolidin-1-yl)-piperidine-1-carboxylic acid (4-methoxy-7-phenyl-thiazolo[4,5-c]pyridin-2-yl)-amide]: the IC50 is below 100 nM at human A2A receptor [1]; below 10 nM on human A2A receptor [2]; above 1000 nM at human A1 receptor; below 10 nM at human A2B receptor; below 100 nM with mouse Pan T cells [3]; above 1000 nM at human A3 receptor.
In the case of `COc1ncc(C2=CCOCC2)c2sc(NC(=O)c3ccc(C(=O)N(C)C)cc3)nc12` [Compound 61, N4-[7-(3,6-dihydro-2H-pyran-4-yl)-4-methoxy-[1,3]thiazolo[4,5-c]pyridin-2-yl]-N1,N1-dimethylbenzene-1,4-dicarboxamide], the concentration for half-maximal inhibition (IC50) is below 10 nM on human A2A receptor [1]; below 10 nM on human A2A receptor [2]; below 100 nM in the experiment on mouse Pan T cells [4]; below 1000 nM on human A1 receptor; below 10 nM at human A2B receptor; above 1000 nM on human A3 receptor.
Take `COc1ncc(-c2ccco2)c2sc(NC(=O)N3CCC4(CCOCC4)C3)nc12` [Compound 48, 8-Oxa-2-aza-spiro[4.5]decane-2-carboxylic acid (7-furan-2-yl-4-methoxy-thiazolo[4,5-c]pyridin-2-yl)-amide]: the IC50 on human A2A receptor [1] was below 100 nM; on human A2A receptor [2], below 10 nM; on human A1 receptor it was above 1000 nM; on human A2B receptor, below 10 nM; in the experiment on mouse Pan T cells [3] it was below 100 nM; on human A3 receptor, above 1000 nM.
